Measured values reported in patent publication US20260364184A1, “COMPOUND BASED ON OXOISOINDOLINYL-SUBSTITUTED TETRAHYDROPYRIMIDINE-DIONE AND USE THEREOF” (GLUETACS THERAPEUTICS (SHANGHAI) CO., LTD., priority 2023, published 2026).

How the values were obtained:
[1] = system: Human large cell immunoblastic lymphoma cell line SR; assay: Inhibition of SR cell proliferation (CellTiter luminescent viability); type: cell-based; settings: Table IB1, ALK inhibitor-based, 96 hours, read-out: Inhibitory activity (IC50, nM) on tumor cell proliferation, SR
Method in brief: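 Cells are seeded in 96-well plates, cultured at 37 °C, 5% CO2, and treated next day with 5-fold serial compound dilutions (stock series from 2000 μM; 0.5 μL into 100 μL medium). Viability is read by CellTiter-Meiluncell luminescence after the set exposure, and IC50 is taken from growth-inhibition curves.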

[2] = target: T1, ALK (Homo sapiens, UniProt Q9UM73); assay: Western blot degradation of ALK; type: cell-based; settings: H2228 Cell; 24 hours
T1 construct: known EML4-ALK variant 3 fusion, ALK kinase part unmutated), Western blot
Experimental: Conventional Western blot assay was performed to evaluate the effects of the compounds of the present disclosure on the expression of target proteins in cells.
(1) Cell Seeding and Protein Harvesting: The selected cells were processed according to the cell seeding procedure and protein harvesting procedure in Table II-2.
(2) To the collected supernatant, 5×SDS sample loading buffer was added, followed by denaturation at 95 °C for 5 minutes. The denatured samples were then separated by SDS-PAGE electrophoresis on a polyacrylamide gel. Proteins were transferred to a nitrocellulose membrane (0.45 μm NC membrane), blocked with blocking buffer at room temperature for 1 hour, and subjected to antibody incubation and development procedures according to the antibody manufacturer's instructions (Cell Signaling Technology).
Half-Maximal Degradation Concentration value (the drug concentration required for degrading proteins by 50%, abbreviated as DC50) reads method: comparing the grayscale values of Western blot bands from drug-treated samples with those from blank DMSO-treated controls, and identifying the drug concentration range at which the grayscale value is half that of the DMSO-treated control bands.
DC50 values can be calculated using ImageJ software to measure grayscale values of Western blot bands from drug-treated samples. The concentration-response curve is fitted to estimate the drug concentration corresponding to half the grayscale value.
Target protein remaining (%) refers to the percentage of target protein remaining in cells after treatment with protein degrader compounds.
Calculation method for target protein remaining (%): Use ImageJ software to measure grayscale values of Western blot bands from drug (protein degrader)-treated samples. The grayscale value of drug-treated bands is divided by that of internal control protein bands, and the resulting quotient is normalized to obtain the relative percentage of remaining target protein after protein degrader treatment.
Target protein degradation rate (%)=1−target protein remaining (%).

[3] = system: Human malignant melanoma cell line (A375); assay: Inhibition of A375 cell proliferation (CellTiter luminescent viability); settings: A-375, Table III (II1), EZH2 inhibitor-based, 96 hours; for inhibition at 0.01 µM: A375, 10 nM, read-out: Inhibition Rate at 10 nM (%); for inhibition at 0.5 µM: A375, 500 nM, read-out: Inhibition Rate at 500 nM (%)
Experimental: (§1) The tumor cells used herein were cultured in a cell culture medium listed in table 3 at 37 °C in an incubator with 5% CO2. Prior to experimentation, all cell lines used were correctly identified by STR profiling, and tested negative for mycoplasma contamination using a mycoplasma detection kit through routine screenings.
(§2) The IC50 values of the compounds of the present disclosure (including the compounds in Table 1, Table 2, and Examples 1-468) were determined using the CellTiter-Meiluncell Luminescent Cell Viability Assay Kit from Dalian Meilun Biotech Co., Ltd. The detailed procedure is as follows: Tumor cells were seeded in 96-well cell culture plates at the densities specified in Table 4. On the following day, the test compounds of the present disclosure were subjected to serial dilution. The dilution can be performed according to one of the following two methods: • (1) The first dilution method: The test compounds of the present disclosure (including the compounds in Table 1, Table 2, and Examples 1-468) were subjected to 5-fold serial dilutions starting from a highest concentration of 2000 μM, resulting in a total of 9 concentrations from high to low (2000, 400, 80, 16, 3.2, 0.64, 0.128, 0.0256, 0.00512 μM). Subsequently, 0.5 μL of the test compound dilution was transferred into the 96-well plate containing the cells, with each well containing 100 μL of cell culture medium. […] Into the 96-well plate, the diluted test compounds and corresponding detection reagents were added, resulting in final test compound concentrations of 500 nM and 10 nM, respectively. The experimental procedure is described below using the diluted 2 μM test compound as an example.
(§3) 0.5 μL of the aforementioned diluted compound of the present disclosure (including the compounds in Table 1, Table 2, and Examples 1-468) was added to the seeded cells in 100 μL of medium, yielding a final test compound concentration of 10 nM. After the cells were treated with the compounds of the present disclosure for a specified period, the cell viability assay reagent was added to the culture medium according to the kit's instructions to determine cell viability. […] All controls were treated using the same procedure as the compounds of the present disclosure. The growth inhibition curves for the compounds of the present disclosure were plotted using Prism GraphPad software, and the IC50 values were calculated therefrom.

[4] = system: Human neuroblastoma cell line (SK-N-AS); assay: Inhibition of SK-N-AS cell proliferation (CellTiter luminescent viability); type: cell-based; settings: Table II2, EZH2 inhibitor-based, 96 hours
Experimental: as §1, §2, §3

T1 sequence (Q9UM73 19-1620): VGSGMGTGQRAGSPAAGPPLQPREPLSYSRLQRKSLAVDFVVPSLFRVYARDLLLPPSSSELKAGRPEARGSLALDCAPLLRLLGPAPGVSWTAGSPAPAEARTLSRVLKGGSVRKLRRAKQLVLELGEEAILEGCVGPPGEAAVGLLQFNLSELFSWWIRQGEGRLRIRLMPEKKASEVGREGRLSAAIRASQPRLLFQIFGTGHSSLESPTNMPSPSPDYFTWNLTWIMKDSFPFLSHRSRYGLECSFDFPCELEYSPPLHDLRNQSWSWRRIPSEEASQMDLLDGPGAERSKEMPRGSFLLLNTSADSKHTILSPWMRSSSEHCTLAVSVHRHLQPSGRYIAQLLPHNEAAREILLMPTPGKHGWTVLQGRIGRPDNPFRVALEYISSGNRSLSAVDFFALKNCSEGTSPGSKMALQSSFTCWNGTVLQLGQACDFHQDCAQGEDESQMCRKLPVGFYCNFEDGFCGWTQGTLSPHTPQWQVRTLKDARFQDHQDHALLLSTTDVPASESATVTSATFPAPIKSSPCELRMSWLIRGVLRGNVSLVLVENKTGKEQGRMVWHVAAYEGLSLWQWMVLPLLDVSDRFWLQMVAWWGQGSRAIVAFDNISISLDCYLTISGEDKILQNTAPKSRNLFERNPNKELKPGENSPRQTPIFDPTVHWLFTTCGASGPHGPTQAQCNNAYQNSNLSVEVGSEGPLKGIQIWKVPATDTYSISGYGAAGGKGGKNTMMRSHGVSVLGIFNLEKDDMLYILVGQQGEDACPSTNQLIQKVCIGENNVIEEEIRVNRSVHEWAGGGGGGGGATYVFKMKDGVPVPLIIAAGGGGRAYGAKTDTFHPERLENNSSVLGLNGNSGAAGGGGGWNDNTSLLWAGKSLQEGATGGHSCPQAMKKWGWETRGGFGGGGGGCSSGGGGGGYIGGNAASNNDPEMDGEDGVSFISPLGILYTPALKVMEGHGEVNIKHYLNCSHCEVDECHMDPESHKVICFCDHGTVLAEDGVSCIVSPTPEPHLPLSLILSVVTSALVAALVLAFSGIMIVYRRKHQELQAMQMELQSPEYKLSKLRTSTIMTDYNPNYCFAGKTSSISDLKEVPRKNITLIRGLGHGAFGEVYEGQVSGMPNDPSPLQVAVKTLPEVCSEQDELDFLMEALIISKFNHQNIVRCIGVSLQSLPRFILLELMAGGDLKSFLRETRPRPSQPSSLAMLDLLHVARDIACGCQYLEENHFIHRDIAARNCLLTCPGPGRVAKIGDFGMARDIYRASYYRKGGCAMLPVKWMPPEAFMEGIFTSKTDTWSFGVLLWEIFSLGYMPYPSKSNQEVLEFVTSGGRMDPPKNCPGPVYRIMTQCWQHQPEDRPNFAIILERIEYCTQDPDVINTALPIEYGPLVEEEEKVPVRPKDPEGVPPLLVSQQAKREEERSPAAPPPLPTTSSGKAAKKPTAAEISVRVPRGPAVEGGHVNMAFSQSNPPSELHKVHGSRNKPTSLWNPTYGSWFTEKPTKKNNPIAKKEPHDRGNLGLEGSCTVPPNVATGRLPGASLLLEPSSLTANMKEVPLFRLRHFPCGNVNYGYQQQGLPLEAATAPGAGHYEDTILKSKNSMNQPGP
T1 sequence (Q96SW2 whole entry partner, the tested form may be a part): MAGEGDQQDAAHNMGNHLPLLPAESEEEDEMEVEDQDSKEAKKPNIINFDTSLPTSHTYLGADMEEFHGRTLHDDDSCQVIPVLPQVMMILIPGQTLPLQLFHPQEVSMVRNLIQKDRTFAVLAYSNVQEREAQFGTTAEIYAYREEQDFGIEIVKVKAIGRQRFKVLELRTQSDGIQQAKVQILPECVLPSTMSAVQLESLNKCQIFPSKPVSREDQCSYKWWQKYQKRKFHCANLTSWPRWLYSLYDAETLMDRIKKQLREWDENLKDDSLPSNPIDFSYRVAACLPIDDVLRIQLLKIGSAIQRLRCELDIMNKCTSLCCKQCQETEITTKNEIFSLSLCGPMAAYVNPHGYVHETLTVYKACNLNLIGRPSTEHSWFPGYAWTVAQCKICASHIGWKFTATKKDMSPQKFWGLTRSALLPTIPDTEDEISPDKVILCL

Row | SMILES | IC50 [1] [nM] | Degradation of substrate protein ALK (substrate protein remaining %) [2] | inhibition at 0.01 µM [3] [%] | inhibition at 0.5 µM [3] [%] | inhibition at 0.01 µM ([4]; 10 nM, read-out: Inhibition Rate at 10 nM (%)) [%] | inhibition at 0.5 µM ([4]; 500 nM, read-out: Inhibition Rate at 500 nM (%)) [%]
1 | CCCc1cc(C)[nH]c(=O)c1CNC(=O)c1cc(-c2ccc(N3CCN(CC4CCN(c5ccc6c(c5)C(=O)N(N5CCC(=O)NC5=O)C6=O)CC4)CC3)nc2)cc2c1cnn2C(C)C [GT-08516, 6-(6-(4-((1-(2-(2,4-dioxotetrahydropyrimidin-1(2H)-yl)-1,3-dioxoisoindolin-5-yl)piperidin-4-yl)methyl)piperazin-1-yl)pyridin-3-yl)-1-isopropyl-N-((6-methyl-2-oxo-4-propyl-1,2-dihydropyridin-3-yl)methyl)-1H-indazole-4-carboxamide] | – | – | 20 to 30 | 20 to 30 | – | –
2 | CCN(c1cc(-c2ccc(CN3CCOCC3)cc2)cc(C(=O)NCc2c(C)cc(C)[nH]c2=O)c1C)C1CCOCC1 [Tazemetostat, reference compound] | – | – | 0 to 5 | 0 to 5 | – | –
3 | CCN(c1cc(-c2ccc(CN3CCN(CC4CCN(c5ccc6c(c5)C(=O)N(N5CCC(=O)NC5=O)C6=O)CC4)CC3)cc2)cc(C(=O)NCc2c(C)cc(C)[nH]c2=O)c1C)C1CCOCC1 [GT-08518, N-((4,6-dimethyl-2-oxo-1,2-dihydropyridin-3-yl)methyl)-4′-((4-((1-(2-(2,4-dioxotetrahydropyrimidin-1(2H)-yl)-1,3-dioxoisoindolin-5-yl)piperidin-4-yl)methyl)piperazin-1-yl)methyl)-5-(ethyl(tetrahydro-2H-pyran-4-yl)amino)-4-methyl-[1,1′-biphenyl]-3-carboxamide] | – | – | 20 to 30 | 20 to 30 | – | –
4 | CCN(c1cc(-c2ccc(N3CCN(C4CCN(Cc5ccc6c(c5)C(=O)N(N5CCC(=O)NC5=O)C6=O)CC4)CC3)cc2)cc(C(=O)NCc2c(C)cc(C)[nH]c2=O)c1C)C1CCOCC1 [GT-08515, N-((4,6-dimethyl-2-oxo-1,2-dihydropyridin-3-yl)methyl)-4′-(4-(1-((2-(2,4-dioxotetrahydropyrimidin-1(2H)-yl)-1,3-dioxoisoindolin-5-yl)methyl)piperidin-4-yl)piperazin-1-yl)-5-(ethyl(tetrahydro-2H-pyran-4-yl)amino)-4-methyl-[1,1′-biphenyl]-3-carboxamide] | – | – | 20 to 30 | 20 to 30 | 20 to 30 | 20 to 30
5 | CCc1cc2c(cc1N1CCC(N3CCN(CC4CCN(c5ccc6c(c5)C(=O)N(N5CCC(=O)NC5=O)C6=O)CC4)CC3)CC1)C(C)(C)c1[nH]c3cc(C#N)ccc3c1C2=O [GT-06823, 8-(4-(4-((1-(2-(2,4-dioxotetrahydropyrimidin-1(2H)-yl)-1,3-dioxoisoindolin-5-yl)piperidin-4-yl)methyl)piperazin-1-yl)piperidin-1-yl)-9-ethyl-6,6-dimethyl-11-oxo-6,11-dihydro-5H-benzo[b]carbazole-3-carbonitrile] | 10 to 50 | A (0%≤substrate protein remaining %≤80%) | – | – | – | –
6 | CCN(c1cc(-c2ccc(CN3CCN(Cc4ccc5c(c4)CN(N4CCC(=O)NC4=O)C5=O)CC3)cc2)cc(C(=O)NCc2c(C)cc(C)[nH]c2=O)c1C)C1CCOCC1 [GT-08508, N-((4,6-dimethyl-2-oxo-1,2-dihydropyridin-3-yl)methyl)-4′-((4-((2-(2,4-dioxotetrahydropyrimidin-1(2H)-yl)-1-oxoisoindolin-5-yl)methyl)piperazin-1-yl)methyl)-5-(ethyl(tetrahydro-2H-pyran-4-yl)amino)-4-methyl-[1,1′-biphenyl]-3-carboxamide] | – | – | 20 to 30 | 20 to 30 | – | –
7 | CCc1cc2c(cc1N1CCC(N3CCN(Cc4ccc5c(c4)CN(N4CCC(=O)NC4=O)C5=O)CC3)CC1)C(C)(C)c1[nH]c3cc(C#N)ccc3c1C2=O [GT-06822, 8-(4-(4-((2-(2,4-dioxotetrahydropyrimidin-1(2H)-yl)-1-oxoisoindolin-5-yl)methyl)piperazin-1-yl)piperidin-1-yl)-9-ethyl-6,6-dimethyl-11-oxo-6,11-dihydro-5H-benzo[b]carbazole-3-carbonitrile] | 10 to 50 | A (0%≤substrate protein remaining %≤80%) | – | – | – | –

Further lines, with some results ahead:

Row | IC50 [1] [nM] | Degradation of substrate protein ALK (substrate protein remaining %) [2] | SMILES | inhibition at 0.01 µM [3] [%] | inhibition at 0.5 µM [3] [%] | inhibition at 0.01 µM ([4]; 10 nM, read-out: Inhibition Rate at 10 nM (%)) [%] | inhibition at 0.5 µM ([4]; 500 nM, read-out: Inhibition Rate at 500 nM (%)) [%]
8 | 10 to 50 | A (0%≤substrate protein remaining %≤80%) | CCc1cc2c(cc1N1CCN(CC3CCN(c4cccc5c4C(=O)N(N4CCC(=O)NC4=O)C5=O)CC3)CC1)C(C)(C)c1[nH]c3cc(C#N)ccc3c1C2=O [GT-07322, 8-(4-((1-(2-(2,4-dioxotetrahydropyrimidin-1(2H)-yl)-1,3-dioxoisoindolin-4-yl)piperidin-4-yl)methyl)piperazin-1-yl)-9-ethyl-6,6-dimethyl-11-oxo-6,11-dihydro-5H-benzo[b]carbazole-3-carbonitrile] | – | – | – | –
9 | 10 to 50 | A (0%≤substrate protein remaining %≤80%) | CCc1cc2c(cc1N1CCN(Cc3ccc4c(c3)CN(N3CCC(=O)NC3=O)C4=O)CC1)C(C)(C)c1[nH]c3cc(C#N)ccc3c1C2=O [GT-07340, 8-(4-((2-(2,4-dioxotetrahydropyrimidin-1(2H)-yl)-1-oxoisoindolin-5-yl)methyl)piperazin-1-yl)-9-ethyl-6,6-dimethyl-11-oxo-6,11-dihydro-5H-benzo[b]carbazole-3-carbonitrile] | – | – | – | –
10 | 50 to 100 | A (0%≤substrate protein remaining %≤80%) | CCc1cc2c(cc1N1CCN(CC3CCN(c4ccc5c(c4)C(=O)N(N4CCC(=O)NC4=O)C5=O)CC3)CC1)C(C)(C)c1[nH]c3cc(C#N)ccc3c1C2=O [GT-07321, 8-(4-((1-(2-(2,4-dioxotetrahydropyrimidin-1(2H)-yl)-1,3-dioxoisoindolin-5-yl)piperidin-4-yl)methyl)piperazin-1-yl)-9-ethyl-6,6-dimethyl-11-oxo-6,11-dihydro-5H-benzo[b]carbazole-3-carbonitrile] | – | – | – | –
11 | 50 to 100 | A (0%≤substrate protein remaining %≤80%) | COc1cc(N2CCN(CC3CCN(c4cccc5c4C(=O)N(N4CCC(=O)NC4=O)C5=O)CC3)CC2)ccc1Nc1ncc(Cl)c(Nc2ccccc2P(C)(C)=O)n1 [GT-07344, 4-(4-((4-(4-((5-chloro-4-((2-(dimethylphosphoryl)phenyl)amino)pyrimidin-2-yl)amino)-3-methoxyphenyl)piperazin-1-yl)methyl)piperidin-1-yl)-2-(2,4-dioxotetrahydropyrimidin-1(2H)-yl)isoindoline-1,3-dione] | – | – | – | –
12 | 100 to 300 | A (0%≤substrate protein remaining %≤80%) | COc1cc(N2CCN(Cc3ccc4c(c3)C(=O)N(N3CCC(=O)NC3=O)C4=O)CC2)ccc1Nc1ncc(Cl)c(Nc2ccccc2P(C)(C)=O)n1 [GT-07342, 5-((4-(4-((5-chloro-4-((2-(dimethylphosphoryl)phenyl)amino)pyrimidin-2-yl)amino)-3-methoxyphenyl)piperazin-1-yl)methyl)-2-(2,4-dioxotetrahydropyrimidin-1(2H)-yl)isoindoline-1,3-dione] | – | – | – | –
